Earlier results, collected in patent US7193101B2, “Esters with antimicrobial, bioresistant and fungal resistant properties” (TPAT IP, priority 2004, dated 2007).

How the values were obtained:
[1] = system: various strains of both gram positive and gram negative bacteria
nematodes = settings: prior art U.S. Pat. No. 5,013,762
[2] = prior art U.S. Pat. No. 5,866,511

Compound | antifungal activity (fungi) | average minimum inhibitory concentration ([1]; average over gram positive and gram negative strains) | effective concentration against bacteria ([1]; various strains of gram positive and gram negative bacteria) | effectiveness for the treatment of nematodes in the soil (nematodes) | effectiveness as a general biocide [2]
O=[N+]([O-])C(Br)(CO)CO [BNPD, 2-bromo-2-nitro-propane-1,3-diol] | antifungal | around 25 ppm | 1–50 ppm |  | 
O=[N+]([O-])CBr [bromonitromethane] |  |  |  | effective | effective
